# Data from paper PMC5773577, “Novel Miniature Membrane Active Lipopeptidomimetics against Planktonic and Biofilm Embedded Methicillin-Resistant Staphylococcus aureus” (Scientific Reports, 2018).
# How the values were obtained:
# [1] = system: Methicillin-resistant S. epidermidis (ATCC 35984); experiment: microbe, parasite or virus in culture; type: cell-based, Staphylococcus epidermidis; settings: Staphylococcus epidermidis, ATCC 35984 / MRSE; MRSE ATCC 35984; MHB, 2–5 × 10^5 CFU/mL, 16–18 h, 37 °C, OD600; read-out: Minimum inhibitory concentration, MIC
# Description: (§1) The antibacterial activity was evaluated as MIC using slight modifications to a serial broth micro dilution method as reported previously[66],[67]. Briefly, to each treatment well of the 96-well plate (Corning Incorporated, USA) 10 μL of peptidomimetic/antibiotic was added and subsequently diluted serial 2-fold in 0.2% BSA (in 0.01% acetic acid). Then to each well of the first 11 columns 100 μL of mid-log phase bacterial suspension in MHB medium was added to get 2–5 × 10^5 CFU/mL. Cultures without test peptidomimetics/antibiotics were used as growth control. Uninoculated MHB medium was used as negative control. The microtitre plates were incubated overnight with agitation (180 rpm) at 37 °C. After 16–18 h incubation, absorbance was read at 600 nm using an ELISA plate reader (Molecular Devices, Sunnyvale, CA, USA). The experiments were carried out in duplicate on at least three different days.
# [2] = system: Vancomycin-resistant E. faecium (ATCC 700221); experiment: microbe, parasite or virus in culture; type: cell-based; settings: Enterococcus faecium, ATCC700221, MHB, 2–5 × 10^5 CFU/mL, 16–18 h, 37 °C, read-out: Minimum inhibitory concentration, MIC
# Description: as §1
# E. faecalis (ATCC 29212) = experiment: microbe, parasite or virus in culture; type: cell-based; settings: Enterococcus faecalis, ATCC29212, MHB, 2–5 × 10^5 CFU/mL, 16–18 h, 37 °C, read-out: Minimum inhibitory concentration, MIC
# Description: as §1
# [3] = system: 48 h mature MRSA ATCC 33591 biofilms; experiment: 48 h mature biofilm, confocal laser scanning microscopy (Live/Dead); type: cell-based, Staphylococcus aureus; settings: 24 h treatment at 20 × MIC (S-7 226 μg/mL, S-8 28 μg/mL, VAN 28 μg/mL), untreated 22 μm
# Description: For the experiment, a protocol as described previously was used with slight modifications[24],[72]. Briefly, stationary phase MRSA ATCC 33591 culture ~10^5 CFU/mL in TSB medium (supplemented with 0.25% glucose and 0.5% NaCl) was added to the well of an 8-well chamber slide (200 μL). The slide was incubated at 37 °C without shaking for 24 h. After 24 h, the medium was discarded and the biofilm was washed with PBS once (10 mM sodium phosphate, 150 mM NaCl, pH 7.3). […] After 48 h (24 h + 24 h), the planktonic cells were removed and the biofilms were washed with PBS once. To the wells, 200 μL of PBS containing BacLight Live/Dead viability stain [SYTO9 (green fluorescence) and propidium iodide (PI) (red fluorescence) in equal volume] was added and the chamber slides were incubated at room temperature for 15 min in dark. After 15 min, the stain was removed and biofilms were washed with PBS once. To fix the biofilms, 200 μL of neutral buffered formalin (10% in PBS) was added to each well and the slides were kept at room temperature in dark for 30 min. After fixation, the biofilms were washed once, the chamber was removed and a cover slip was placed over the slide. The biofilms were viewed with an Olympus FluoView^TM FV1000 confocal laser scanning microscope (2D and z-stacking). […] For each sample, the biofilms thickness was also determined using z-scanning confocal microscopy. […]
# MRSA ATCC 33591 = experiment: Cell viability corresponding to calcein leakage experiment; type: cell-based, Staphylococcus aureus; settings: calcein-loaded cells in PBS, 4 × MIC (melittin 10 μM), 2 h incubation
# Description: To assess the effect of designed peptidomimetics on membrane integrity of MRSA ATCC 33591 strain a calcein-AM dye release experiment was performed using the protocol described previously with slight modifications[51]. Briefly, exponential phase MRSA ATCC 33591 culture was prepared in MHB medium as mentioned earlier and adjusted to OD600 = 1 (~10^9 CFU/mL) in PBS (10 mM sodium phosphate, 150 mM NaCl, pH 7.4). Thereafter, the cells were incubated at 37 °C with calcein-AM (2 μg/mL) in 10% MHB medium for 2 h. The calcein-loaded cells were washed once and re-suspended in PBS to OD600 = 0.5 (~10^8 CFU/mL). The cells were diluted 100× in PBS to get 3–5 × 10^5 CFU/mL and were incubated with different concentrations of test agents at 37 °C in dark for 2 h. Subsequently, calcein fluorescence was measured via flow cytometry (Becton Dickinson (BD) FACS verse, San Jose, CA) with excitation and emission wavelengths of 488 nm and 530 ± 30 nm, respectively. For each sample, 10,000 cells were acquired. As a positive control, melittin (10 μM) was assayed under identical conditions. The experiment was repeated on two different days and mean ± S.D. is presented here. […]
# agar plates. The plates were incubated at 37 °C for 16-18 h and colonies were counted. […]
# [4] = system: stationary phase MRSA ATCC 33591; experiment: Bacterial killing kinetics, stationary phase cells in nutrient-depleted MHB medium; type: cell-based, Staphylococcus aureus; settings: 24 h
# Description: The kinetics of bacterial killing was determined against MRSA ATCC 33591 strain using drop plate method as described previously with slight modifications[51],[67],[70],[71]. The experiment was performed against exponential phase MRSA in normal medium and stationary phase MRSA in nutrient-depleted medium. For the preparation of nutrient-depleted medium, the primary MRSA ATCC 33591 culture in MHB medium was allowed to grow for 18 h at 37 °C and the cells were removed by centrifugation. The cell pellet was used for stationary phase culture and the spent medium supernatant was used as a nutrient-depleted medium. For obtaining exponential phase cells, MRSA was grown overnight in MHB and 100 μL suspension was used to inoculate 10 mL fresh MHB medium. The cells were incubated at 37 °C for 4–6 h to reach exponential phase.
# For the experiments, both exponential and stationary phase cells were re-suspended separately in normal or nutrient-depleted mediums to OD600 = 0.5 (~10^8 CFU/mL). A 25 µL aliquot of this suspension was added to 475 μL of respective medium with or without test peptidomimetics/antibiotics in an eppendorf tube. […] The agar plates were incubated at 37 °C for 16–18 h and the colonies were counted (dilutions having colonies in the range of 10–100 were counted). […]
# [5] = system: E. faecium (E-447), clinical isolate of vancomycin-resistant E. faecium; experiment: organism not typed; type: cell-based, Enterococcus faecium; settings: read-out: Minimum inhibitory concentration, MIC
# Description: as §1
# [6] = system: E. faecium (E-7846), clinical isolate of vancomycin-resistant E. faecium; experiment: organism not typed; type: cell-based, Enterococcus faecium; settings: read-out: Minimum inhibitory concentration, MIC
# Description: as §1
structure (smiles),measurement,setting,value
"CN[C@H](CC(C)C)C(=O)N[C@H]1C(=O)N[C@@H](CC(N)=O)C(=O)N[C@H]2C(=O)N[C@H]3C(=O)N[C@H](C(=O)N[C@H](C(=O)O)c4cc(O)cc(O)c4-c4cc3ccc4O)[C@H](O)c3ccc(c(Cl)c3)Oc3cc2cc(c3O[C@@H]2O[C@H](CO)[C@@H](O)[C@H](O)[C@H]2O[C@H]2C[C@](C)(N)[C@H](O)[C@H](C)O2)Oc2ccc(cc2Cl)[C@H]1O [VAN, vancomycin]",MIC,[1],2.8 µg/mL
same,MIC,[2],> 45.4 µg/mL
same,MIC,E. faecalis (ATCC 29212),1.4 µg/mL
same,biofilm thickness,[3],14 μm
same,log reduction in viability,MRSA ATCC 33591,no reduction
same,log reduction in CFU/mL,[4]; 4 × MIC,~ 1.1 log
same,log reduction in CFU/mL,[4]; 10 × MIC,~ 1.1 log
same,MIC,[5],> 45.4 µg/mL
same,MIC,[6],> 45.4 µg/mL
